According to patent US7547660B2, “Phenyl-substituted 4-hydroxy-tetrahydropyridones” (Bayer Aktiengesellschaft, priority 2000, dated 2009):

Assays:
Assay type in all cases: in vivo
[1] = test system: Galium; experiment: Pre-emergence test, greenhouse; conditions: 500 g/ha, after three weeks
Method: (§1) • Solvent: 5 parts by weight of acetone • Emulsifier: 1 part by weight of alkylaryl polyglycol ether
(§2) To produce a suitable preparation of active compound, 1 part by weight of active compound is mixed to the stated amount of solvent, the stated amount of emulsifier is added and the concentrate is diluted with water to the desired concentration.
(§3) Seeds of the test plants are sown in normal soil. After about 24 hours, the soil is sprayed with the preparation of active compounds such that the particular amounts of active compound desired are applied per unit area. The concentration of the spray liquor is chosen such that the particular amounts of active compound desired are applied in 1 000 l of water/ha.
(§4) After three weeks, the degree of damage to the plants is rated in % damage in comparison to the development of the untreated control.
(§5) The figures denote: • 0%=no effect (like untreated control) • 100%=total destruction

[2] = test system: Alopecurus; experiment: Pre-emergence test, greenhouse; conditions: after three weeks
Method: as §1, §2, §3, §4, §5

[3] = test system: Amaranthus; experiment: Pre-emergence test, greenhouse; conditions: 500 g/ha, after three weeks
Method: as §1, §2, §3, §4, §5

[4] = test system: Meloidogyne incognita; experiment: Meloidogyne test; conditions: 20 ppm active compound; after 14 days; lettuce
Method: Meloidogyne Test • Solvent: 30 parts by weight of dimethylformamide • Emulsifier: 1 part by weight of alkylaryl polyglycol ether To produce a suitable preparation of active compound, 1 part by weight of active compound is mixed with the stated amounts of solvent and emulsifier, and the concentrate is diluted with water to the desired concentration. Containers are filled with sand, solution of active compound, Meloidogyne incognita egg/larvae suspension and lettuce seeds. The lettuce seeds germinate and the plants develop. On the roots, galls are formed. After the desired period of time, the nematicidal action in % is determined using the formation of galls as a measure. 100% means that no galls have been found; 0% means that the number of galls on the treated plants corresponds to that on the untreated control.

[5] = test system: Tetranychus urticae; experiment: Tetranychus test (OP-resistent/dip treatment); conditions: 100 ppm active compound; after 7 days; bean plants dipped
Method: Tetranychus Test (OP-Resistent/Dip Treatment)
• Solvent: 30 parts by weight of dimethylformamide • Emulsifier: 1 part by weight of alkylaryl polyglycol ether
To produce a suitable preparation of active compound, 1 part by weight of active compound is mixed with the stated amounts of solvent and emulsifier, and the concentrate is diluted with emulsifier-containing water to the desired concentration.
Bean plants (Phaseolus vulgaris) which are heavily infested by all stages of the greenhouse […] spider mite (Tetranychus urticae) are treated by being dipped into a preparation of active compound of the desired concentration.
After the desired period of time, the effect in % is determined. 100% means that all spider mites have been killed; 0% means that none of the spider mites have been killed.

[6] = test system: Alopecurus; experiment: Post-emergence test, greenhouse; conditions: 2 000 g/ha, after three weeks
Method: as §1
(§6) To produce a suitable preparation of active compound, 1 part by weight of active compound is mixed with the stated amount of solvent, the stated amount of emulsifier is added and the concentrate is diluted with water to the desired concentration.
(§7) Test plants of a height of 5-15 cm are sprayed with the preparation of active compound such that the particular amounts of active compound desired are applied per unit area. The concentration of the spray liquor was chosen such that the particular amounts of active compound desired are applied in 1 000 l of water/ha.
as §4, §5

[7] = test system: Echinochloa; experiment: Post-emergence test, greenhouse; conditions: after three weeks
Method: as §1, §6, §7, §4, §5

[8] = test system: Setaria; experiment: Post-emergence test, greenhouse; conditions: after three weeks
Method: as §1, §6, §7, §4, §5

[9] = test system: Sugar beet; experiment: Post-emergence test, greenhouse; conditions: after three weeks
Method: as §1, §6, §7, §4, §5

[10] = test system: Amaranthus; experiment: Post-emergence test, greenhouse; conditions: after three weeks
Method: as §1, §6, §7, §4, §5

[11] = test system: Soya; experiment: Pre-emergence test, greenhouse; conditions: 250 g/ha, after three weeks
Method: as §1, §2, §3, §4, §5

[12] = test system: Lolium; experiment: Pre-emergence test, greenhouse; conditions: 250 g/ha, after three weeks
Method: as §1, §2, §3, §4, §5

[13] = test system: Digitaria; experiment: Pre-emergence test, greenhouse; conditions: 250 g/ha, after three weeks
Method: as §1, §2, §3, §4, §5

[14] = test system: Echinochloa; experiment: Pre-emergence test, greenhouse; conditions: after three weeks
Method: as §1, §2, §3, §4, §5

[15] = test system: Wheat; experiment: Pre-emergence test, greenhouse; conditions: 250 g/ha, after three weeks
Method: as §1, §2, §3, §4, §5

[16] = test system: Setaria; experiment: Pre-emergence test, greenhouse; conditions: after three weeks
Method: as §1, §2, §3, §4, §5

[17] = test system: Avena fatua; experiment: Post-emergence test, greenhouse; conditions: 2 000 g/ha, after three weeks
Method: as §1, §6, §7, §4, §5

[18] = test system: Avena fatua; experiment: Pre-emergence test, greenhouse; conditions: 2 000 g/ha, after three weeks
Method: as §1, §2, §3, §4, §5

Question: Which “% damage Galium” value [1] does the source give for `Cc1cc(Cl)cc(Cl)c1C1=C(O)CC(C)(C)NC1=O` [I-a-3] here?
Answer: The value was 100%.

Question: What about the “% damage Alopecurus” value ([2]; 500 g/ha) of the same molecule?
Answer: Its value is 70%.

Question: What about the “% damage Amaranthus” value [3] of the same molecule?
Answer: Its value is 70%.

Question: With `Cc1ccc(Br)cc1C1=C(O)CC(C)(C)NC1=O` [I-a-4] as the molecule, how does the “kill (nematicidal action, formation of galls as measure)” value [4] read?
Answer: Its value is 95%.

Question: Which “kill of spider mites” value [5] does the source give for `Cc1ccc(-c2ccc(Cl)cc2)cc1C1=C(O)CC(C)(C)NC1=O` [I-a-5] here?
Answer: The value was 99%.

Question: For `Cc1cc(Br)cc(Cl)c1C1=C(O)CC(C)(C)NC1=O` [I-a-10], which “% damage Alopecurus” value [6] is on record?
Answer: Its value is 70%.

Question: What about the “% damage Echinochloa” value ([7]; 2 000 g/ha) of the same molecule?
Answer: The value was 80%.

Question: And the “% damage Setaria” value ([8]; 2 000 g/ha)?
Answer: Its value is 80%.

Question: And the “% damage Sugar beet” value ([9]; 2 000 g/ha)?
Answer: The value was 0%.

Question: What about the “% damage Amaranthus” value ([10]; 2 000 g/ha) of the same molecule?
Answer: The value was 70%.

Question: And the “% damage Soya” value [11]?
Answer: Its value is 0%.

Question: And the “% damage Lolium” value [12]?
Answer: The value was 100%.

Question: What about the “% damage Digitaria” value [13] of the same molecule?
Answer: Its value is 90%.

Question: And the “% damage Echinochloa” value ([14]; 250 g/ha)?
Answer: The value was 80%.

Question: And the “% damage Wheat” value [15]?
Answer: Its value is 0%.

Question: What about the “% damage Setaria” value ([16]; 250 g/ha) of the same molecule?
Answer: Its value is 95%.

Question: How did the “% damage Alopecurus” value [6] turn out when `CCc1cc(Br)cc(Cl)c1C1=C(O)CC(C)(C)NC1=O` [I-a-11] was run?
Answer: The value was 95%.

Question: What about the “% damage Echinochloa” value ([7]; 2 000 g/ha) of the same molecule?
Answer: Its value is 100%.

Question: And the “% damage Avena fatua” value [17]?
Answer: Its value is 100%.

Question: And the “% damage Setaria” value ([8]; 2 000 g/ha)?
Answer: Its value is 100%.

Question: And the “% damage Sugar beet” value ([9]; 2 000 g/ha)?
Answer: The value was 90%.

Question: And the “% damage Alopecurus” value ([2]; 2 000 g/ha)?
Answer: The value was 100%.

Question: And the “% damage Echinochloa” value ([14]; 2 000 g/ha)?
Answer: Its value is 100%.

Question: And the “% damage Avena fatua” value [18]?
Answer: Its value is 100%.

Question: And the “% damage Setaria” value ([16]; 2 000 g/ha)?
Answer: Its value is 100%.

Question: `CCOC(=O)OC1=C(c2cc(-c3ccc(Cl)cc3)ccc2C)C(=O)NC(C)(C)C1` [I-c-1] was tested. Which “kill of spider mites” value [5] did it give?
Answer: Its value is 95%.

Question: What about the “% damage Echinochloa” value ([7]; 250 g/ha) of the same molecule?
Answer: The value was 70%.

Question: What about the “% damage Setaria” value ([8]; 250 g/ha) of the same molecule?
Answer: Its value is 80%.

Question: What about the “% damage Sugar beet” value ([9]; 250 g/ha) of the same molecule?
Answer: The value was 0%.

Question: What about the “% damage Amaranthus” value ([10]; 250 g/ha) of the same molecule?
Answer: The value was 80%.
